Results published in PubChem BioAssay (NCI).
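The concentration for 50% growth inhibition is given as GI50. TGI marks complete inhibition of growth.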

Columns and labels:
Test in all cases: DTP human tumour cell line panel, 384-well format
HOP-92 NSCLC = test system: HOP-92 NSCLC
RPMI-8226 leukemia = test system: RPMI-8226 leukemia
SNB-19 CNS = test system: SNB-19 CNS
A498 renal = test system: A498 renal
OVCAR-4 ovarian = test system: OVCAR-4 ovarian
OVCAR-3 ovarian = test system: OVCAR-3 ovarian
UO-31 renal = test system: UO-31 renal
HT29 colon = test system: HT29 colon
HCT-116 colon = test system: HCT-116 colon
IGROV1 ovarian = test system: IGROV1 ovarian
NCI-H522 lung = test system: NCI-H522 lung
U251 glioblastoma = test system: U251 glioblastoma
COLO 205 colon = test system: COLO 205 colon
RXF 393 renal = test system: RXF 393 renal
OVCAR-8 ovarian = test system: OVCAR-8 ovarian
MALME-3M melanoma = test system: MALME-3M melanoma
NCI-H460 NSCLC = test system: NCI-H460 NSCLC
SK-MEL-28 melanoma = test system: SK-MEL-28 melanoma
ACHN renal = test system: ACHN renal
T-47D breast = test system: T-47D breast
SNB-75 CNS = test system: SNB-75 CNS
SK-OV-3 ovarian = test system: SK-OV-3 ovarian
SN12C renal = test system: SN12C renal
PC-3 prostate = test system: PC-3 prostate
MDA-MB-231 breast = test system: MDA-MB-231 breast
NCI-H23 lung = test system: NCI-H23 lung
K-562 leukemia = test system: K-562 leukemia
SF-295 CNS = test system: SF-295 CNS
HOP-62 NSCLC = test system: HOP-62 NSCLC
SF-539 CNS = test system: SF-539 CNS
BT-549 breast = test system: BT-549 breast
MOLT-4 leukemia = test system: MOLT-4 leukemia
SF-268 CNS = test system: SF-268 CNS
NCI-H226 lung = test system: NCI-H226 lung
UACC-62 melanoma = test system: UACC-62 melanoma
A549 NSCLC = test system: A549 NSCLC
KM12 colon = test system: KM12 colon
SK-MEL-5 melanoma = test system: SK-MEL-5 melanoma
M14 melanoma = test system: M14 melanoma
CCRF-CEM leukemia = test system: CCRF-CEM leukemia
786-0 renal = test system: 786-0 renal
MDA-MB-435 melanoma = test system: MDA-MB-435 melanoma
LOX IMVI melanoma = test system: LOX IMVI melanoma
CAKI-1 renal = test system: CAKI-1 renal
HCT-15 colon = test system: HCT-15 colon
HS 578T breast = test system: HS 578T breast
NCI/ADR-RES ovarian = test system: NCI/ADR-RES ovarian
DU-145 prostate = test system: DU-145 prostate
UACC-257 melanoma = test system: UACC-257 melanoma
SR leukemia = test system: SR leukemia
TK-10 renal = test system: TK-10 renal
HL-60(TB) leukemia = test system: HL-60(TB) leukemia
EKVX NSCLC = test system: EKVX NSCLC
MDA-MB-468 breast = test system: MDA-MB-468 breast
NCI-H322M lung = test system: NCI-H322M lung
SW-620 colon = test system: SW-620 colon

`COc1cc(-c2cnn(C)c2)ccc1Nc1ncc2ccnc(N[C@@H](C)C(C)(C)C)c2n1` gave a GI50 (HOP-92 NSCLC) of 27.5 µM, a TGI (HOP-92 NSCLC) greater than 100 µM and a GI50 (RPMI-8226 leukemia) of 0.302 µM. The TGI (RPMI-8226 leukemia) was greater than 100 µM, the GI50 (SNB-19 CNS) was 60.3 µM and the TGI (SNB-19 CNS) was greater than 100 µM. It also gave a GI50 (A498 renal) of 0.505 µM, a TGI (A498 renal) greater than 100 µM and a GI50 (OVCAR-4 ovarian) greater than 100 µM. For the same compound, the TGI (OVCAR-4 ovarian) was greater than 100 µM, the GI50 (OVCAR-3 ovarian) was greater than 100 µM and the TGI (OVCAR-3 ovarian) was greater than 100 µM. It also gave a GI50 (UO-31 renal) of 14.1 µM, a TGI (UO-31 renal) greater than 100 µM and a GI50 (HT29 colon) of 0.632 µM. It also gave a TGI (HT29 colon) greater than 100 µM, a GI50 (HCT-116 colon) of 0.0447 µM and a TGI (HCT-116 colon) greater than 100 µM. The GI50 (IGROV1 ovarian) was greater than 100 µM, the TGI (IGROV1 ovarian) was greater than 100 µM and the GI50 (NCI-H522 lung) was 0.577 µM. It also gave a TGI (NCI-H522 lung) greater than 100 µM, a GI50 (U251 glioblastoma) of 2.09 µM and a TGI (U251 glioblastoma) greater than 100 µM. The GI50 (COLO 205 colon) was 0.0809 µM, the TGI (COLO 205 colon) was greater than 100 µM and the GI50 (RXF 393 renal) was 0.29 µM. It also gave a TGI (RXF 393 renal) of 13 µM, a GI50 (OVCAR-8 ovarian) of 0.326 µM and a TGI (OVCAR-8 ovarian) greater than 100 µM. The GI50 (MALME-3M melanoma) was greater than 100 µM, the TGI (MALME-3M melanoma) was greater than 100 µM and the GI50 (NCI-H460 NSCLC) was 0.0673 µM. The TGI (NCI-H460 NSCLC) was greater than 100 µM, the GI50 (SK-MEL-28 melanoma) was greater than 100 µM and the TGI (SK-MEL-28 melanoma) was greater than 100 µM. It also gave a GI50 (ACHN renal) of 3.26 µM, a TGI (ACHN renal) greater than 100 µM and a GI50 (T-47D breast) greater than 100 µM. The TGI (T-47D breast) was greater than 100 µM, the GI50 (SNB-75 CNS) was 1.31 µM and the TGI (SNB-75 CNS) was greater than 100 µM. It also gave a GI50 (SK-OV-3 ovarian) greater than 100 µM, a TGI (SK-OV-3 ovarian) greater than 100 µM and a GI50 (SN12C renal) greater than 100 µM. For the same compound, the TGI (SN12C renal) was greater than 100 µM, the GI50 (PC-3 prostate) was greater than 100 µM and the TGI (PC-3 prostate) was greater than 100 µM. For the same compound, the GI50 (MDA-MB-231 breast) was 3 µM, the TGI (MDA-MB-231 breast) was greater than 100 µM and the GI50 (NCI-H23 lung) was 2.41 µM. It also gave a TGI (NCI-H23 lung) greater than 100 µM, a GI50 (K-562 leukemia) of 0.878 µM and a TGI (K-562 leukemia) greater than 100 µM. For the same compound, the GI50 (SF-295 CNS) was 3.54 µM, the TGI (SF-295 CNS) was greater than 100 µM and the GI50 (HOP-62 NSCLC) was 0.498 µM. For the same compound, the TGI (HOP-62 NSCLC) was greater than 100 µM, the GI50 (SF-539 CNS) was 0.476 µM and the TGI (SF-539 CNS) was greater than 100 µM. The GI50 (BT-549 breast) was 53.6 µM, the TGI (BT-549 breast) was greater than 100 µM and the GI50 (MOLT-4 leukemia) was 0.026 µM. For the same compound, the TGI (MOLT-4 leukemia) was 0.0647 µM, the GI50 (SF-268 CNS) was 2.08 µM and the TGI (SF-268 CNS) was greater than 100 µM. The GI50 (NCI-H226 lung) was greater than 100 µM, the TGI (NCI-H226 lung) was greater than 100 µM and the GI50 (UACC-62 melanoma) was 7.46 µM. It also gave a TGI (UACC-62 melanoma) of 88.1 µM, a GI50 (A549 NSCLC) of 0.115 µM and a TGI (A549 NSCLC) greater than 100 µM. The GI50 (KM12 colon) was 0.0699 µM, the TGI (KM12 colon) was greater than 100 µM and the GI50 (SK-MEL-5 melanoma) was greater than 100 µM. For the same compound, the TGI (SK-MEL-5 melanoma) was greater than 100 µM, the GI50 (M14 melanoma) was 10.9 µM and the TGI (M14 melanoma) was greater than 100 µM. The GI50 (CCRF-CEM leukemia) was 0.0835 µM, the TGI (CCRF-CEM leukemia) was 0.271 µM and the GI50 ([…]-0 renal) was 0.474 µM. It also gave a TGI (786-0 renal) greater than 100 µM, a GI50 (MDA-MB-435 melanoma) greater than 100 µM and a TGI (MDA-MB-435 melanoma) greater than 100 µM. It also gave a GI50 (LOX IMVI melanoma) of 0.0893 µM, a TGI (LOX IMVI melanoma) greater than 100 µM and a GI50 (CAKI-1 renal) greater than 100 µM. The TGI (CAKI-1 renal) was greater than 100 µM, the GI50 (HCT-15 colon) was 0.05 µM and the TGI (HCT-15 colon) was greater than 100 µM. The GI50 (HS 578T breast) was 1.7 µM, the TGI (HS 578T breast) was 45 µM and the GI50 (NCI/ADR-RES ovarian) was 0.442 µM. For the same compound, the TGI (NCI/ADR-RES ovarian) was greater than 100 µM, the GI50 (DU-145 prostate) was 0.376 µM and the TGI (DU-145 prostate) was greater than 100 µM. It also gave a GI50 (UACC-257 melanoma) greater than 100 µM, a TGI (UACC-257 melanoma) greater than 100 µM and a TGI (SR leukemia) of 0.0523 µM. The GI50 (TK-10 renal) was 23.2 µM, the TGI (TK-10 renal) was greater than 100 µM and the GI50 (HL-60(TB) leukemia) was 0.11 µM. The TGI (HL-60(TB) leukemia) was 0.318 µM, the GI50 (EKVX NSCLC) was greater than 100 µM and the TGI (EKVX NSCLC) was greater than 100 µM. The GI50 (MDA-MB-468 breast) was 0.486 µM, the TGI (MDA-MB-468 breast) was greater than 100 µM and the GI50 (NCI-H322M lung) was greater than 100 µM. The TGI (NCI-H322M lung) was greater than 100 µM, the GI50 (SW-620 colon) was 0.112 µM and the TGI (SW-620 colon) was greater than 100 µM.
